According to patent US20160280651A1, “COMPOUNDS THAT INDUCE ABA RESPONSES” (THE REGENTS OF THE UNIVERSITY OF CALIFORNIA, priority 2013, published 2016):

Legend:
[1] = system: ABI2 with PYR/PYL receptors; experiment: Receptor-mediated PP2C inhibition assay with ABI2, Example 1; assay type: biochemical, Arabidopsis; settings: 10 μM; receptors PYR1, PYL1, PYL2, PYL3 and PYL5
Method: (§1) FIG. 2A-FIG. 2C. Novel ABA agonists inhibit PPC2 activity through multiple PYR/PYL. (A) Chemical structure of naturally occurring (+)-ABA and selected ABA agonists. (B) and (C) HAB1, ABU, and ABI2 PP2C enzyme activity based ABA-agonist assays for various receptors in the presence or absence of 10 μM each test chemical.
HAB1 and PYL proteins were expressed and purified as described previously (Park S Y, et al. (2009) Abscisic Acid Inhibits Type 2C Protein Phosphatases via the PYR/PYL Family of START Proteins. Science 324(5930):1068-1071), with minor modifications. To obtain GST-HAB1, -ABI1 and -ABI2 fusion proteins, the HAB1 cDNA was cloned into pGex-2T whereas ABI1 and ABI2 cDNAs were cloned into the vector pGex-4T-1. […] After 16 hours incubation at 15° C., cells were harvested and recombinant proteins were purified on glutathione agarose as described previously (Park S Y, et al. (2009). To obtain 6×His-PYL receptor fusion proteins, receptor cDNAs for all 13 ABA receptors were cloned into the vector pET28 and expressed and purified as described previously (Mosquna A, et al. (2011) Potent and selective activation of abscisic acid receptors in vivo by mutational stabilization of their agonist-bound conformation. PNAS 108(51):20838-20843); this yielded soluble and functional protein (assessed using receptor-mediated PP2C inhibition assays) for all receptors except PYL7, PYL11 and PYL12. […]

[2] = system: HVA1 and HvDRF1; experiment: Quantitative RT-PCR of ABA-responsive genes in barley; assay type: in vivo
Text: FIG. 13A-FIG. 13E. LC66C6 modulates ABA responses in diverse species. Germination inhibition (A) and transpirational water loss in detached leaves 2-hours after detachment (B) in response to compounds shown. The expression of ABA-responsive marker genes in Soybean (C), Barley (D) and Maize (E) after application of chemicals. D, P, L and A indicate DMSO, pyrabactin, LC66C6 and (+)-ABA, respectively.
Total RNA was isolated using Plant RNA purification reagent (Invitrogen, USA) according to the manufacturer's instructions. cDNA was synthesized from 1 μg of total RNA using the QantiTec reverse transcription kit (Qiagen, USA). Real-time PCR using Maxima® SYBR Green/Fluorescein qPCR Master Mix (Fermentas) was performed with the iQ5 real-time PCR detection system (Bio-Rad, Hercules, Calif.). The relative amounts of target mRNAs were determined using the relative standard curve method and were normalized by relative amount of internal control mRNA. Biological triplicate experiments were performed.

[3] = system: HAB1 with PYR/PYL receptors; experiment: Receptor-mediated PP2C inhibition assay with HAB1, Example 1; assay type: biochemical, Arabidopsis
Method: as §1
(§2) FIG. 3A-FIG. 3B. (A) Receptor-mediated dose-dependent inhibition of PP2C enzyme activity by ABA agonists and analogs. (B) Observed compound IC50 values in enzymatic HAB1 PP2C-based ABA-agonist assays.
(§3) FIG. 4A-FIG. 4B. Quinabactin activates multiple ABA receptors. (A) Chemical structures of ABA, pyrabactin and quinabactin. (B) Chemical-dependent inhibition of HAB1 by ABA receptors. IC50 values (nM) were determined as described in the methods using 50 nM HAB1, 50 nM and multiple concentrations of compounds; full dose response curves are provided as in FIG. 3. (nd) correspond to receptors that were not produced as active proteins. The phylogenetic tree is a Neighbor-Joining tree made using the JTT distance matrix in MEGA5 (Tamura K, et al. (2011) MEGA5: Molecular Evolutionary Genetics Analysis Using Maximum Likelihood, Evolutionary Distance, and Maximum Parsimony Methods. Molecular Biology and Evolution 28(10):2731-2739).
(§4) HAB1 and PYL proteins were expressed and purified as described previously (Park S Y, et al. (2009) Abscisic Acid Inhibits Type 2C Protein Phosphatases via the PYR/PYL Family of START Proteins. Science 324(5930):1068-1071), with minor modifications. To obtain GST-HAB1, -ABI1 and -ABI2 fusion proteins, the HAB1 cDNA was cloned into pGex-2T whereas ABI1 and ABI2 cDNAs were cloned into the vector pGex-4T-1. Expression was conducted in BL21[DE3]pLysS host cells. Transformed cells were pre-cultured overnight, transferred to LB medium and cultured at 30° C. to culture A600 of ˜0.5. The culture was then cooled on ice and MnCl2 added to 4 mM and IPTG added to 0.3 mM. After 16 hours incubation at 15° C., cells were harvested and recombinant proteins were purified on glutathione agarose as described previously (Park S Y, et al. (2009). To obtain 6×His-PYL receptor fusion proteins, receptor cDNAs for all 13 ABA receptors were cloned into the vector pET28 and expressed and purified as described previously (Mosquna A, et al. (2011) Potent and selective activation of abscisic acid receptors in vivo by mutational stabilization of their agonist-bound conformation. PNAS 108(51):20838-20843); this yielded soluble and functional protein (assessed using receptor-mediated PP2C inhibition assays) for all receptors except PYL7, PYL11 and PYL12. These three receptors were therefore alternatively expressed as maltose binding (MBP) fusion proteins using the vector pMAL-c; expression of these constructs was carried out in BL21 [DE3]pLysS host strain with the same induction conditions used for GST-HAB1. Recombinant MBP-PYL fusion proteins were purified from sonicated and cleared lysate using amylose resin (New England Biolab, Inc.) using the manufacturers purification instructions. This effort yielded an active MBP-PYL11 fusion protein, but failed for PYL7 and PYL12.
(§5) PP2C activity assays using recombinant receptors and PP2Cs were carried out as follows: Purified proteins were pre-incubated in 80 μl assay buffer containing 10 mM MnCl2, 3 μg bovine serum albumin and 0.1% 2-mercaptoethanol with ABA or ABA agonist for 30 minutes at 22° C. Reactions were started by adding 20 μL of a reaction solution containing 156 mM Tris-OAc, pH 7.9, 330 mM KOAc and 5 mM 4-methylumbelliferyl phosphate after which fluorescence measurements were immediately collected using an excitation filter 355 nm and an emission filter 460 nm on a Wallac plate reader. Reactions contained 50 nM PP2C and 100 nM PYR/PYL proteins, respectively.

[4] = target: T1, HAB1 with PYR/PYL receptors (Arabidopsis thaliana, UniProt Q9FLB1); experiment: as above; assay type: biochemical; settings: PYL5
T1 construct: 6xHis (N); made in house; host or cells: E. coli BL21[DE3]pLysS
T1 sequence (Q9FLB1 1-203): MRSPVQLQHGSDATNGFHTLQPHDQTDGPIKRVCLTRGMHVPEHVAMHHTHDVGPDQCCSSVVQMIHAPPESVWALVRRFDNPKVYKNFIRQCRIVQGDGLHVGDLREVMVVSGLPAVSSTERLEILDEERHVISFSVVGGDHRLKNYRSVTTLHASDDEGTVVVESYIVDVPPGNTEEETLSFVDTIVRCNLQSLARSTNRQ
T1 sequence (Q9CAJ0 1-511 partner): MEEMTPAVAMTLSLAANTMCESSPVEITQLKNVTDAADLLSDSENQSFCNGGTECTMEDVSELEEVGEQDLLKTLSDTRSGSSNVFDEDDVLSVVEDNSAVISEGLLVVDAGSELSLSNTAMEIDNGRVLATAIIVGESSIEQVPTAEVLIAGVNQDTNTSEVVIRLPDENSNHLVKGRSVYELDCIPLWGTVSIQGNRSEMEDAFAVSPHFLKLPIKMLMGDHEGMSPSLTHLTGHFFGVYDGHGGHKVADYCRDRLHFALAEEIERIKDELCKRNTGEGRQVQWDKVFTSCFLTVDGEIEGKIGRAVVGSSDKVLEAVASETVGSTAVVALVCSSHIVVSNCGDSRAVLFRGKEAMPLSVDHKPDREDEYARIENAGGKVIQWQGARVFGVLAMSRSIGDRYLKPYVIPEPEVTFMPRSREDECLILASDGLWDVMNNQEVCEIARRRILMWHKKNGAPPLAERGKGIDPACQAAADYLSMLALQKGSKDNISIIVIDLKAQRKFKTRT
Method: as §1, §2, §3, §4, §5

Structure (SMILES) | PP2C inhibition of ABI2 [1] | Expression of ABA-responsive genes HVA1 and HvDRF1 [2] | PP2C inhibition of HAB1 ([3]; 10 μM, receptors PYR1, PYL1, PYL2, PYL3 and PYL5) | IC50 values of receptor activation ([3]; PYR1, PYLs 1-3 and PYL5) | Agonist strength compared with ABA ([3]; PYR1 or PYL1) | Maximal PP2C inhibition compared with pyrabactin ([3]; all receptors tested) | PP2C inhibition at saturation [4] | IC50 ([4]; read-out: IC50 of PYL5 activation)
CCCN1C(=O)CCc2cc(NS(=O)(=O)Cc3ccc(C)cc3)ccc21 [LC66C6] | > 70% | moderately induces | > 70% | submicromolar | stronger PYR1 or PYL1 agonist than ABA | higher than that observed with pyrabactin with all receptors tested |  | 
O=S(=O)(NCc1ccccn1)c1ccc(Br)c2ccccc12 [pyrabactin, reference compound] |  |  |  |  |  |  | ~40% | 900 nM
